Read-outs that look alike come from different tables or passages of the source.

One assay has as its target CDK2/CCNE1 (Homo sapiens, UniProt P24941). Nature of the assay: CDK2 homogeneous time-resolved fluorescence (HTRF) kinase assay. It is filed as biochemical. As to conditions: CDK2/CCNE. The method, then:
(§1) A CDK homogeneous time-resolved fluorescence (HTRF) assay was used to assess the potency of the compounds described herein.
(§2) To an untreated 384-well microtiter plate (ProxiPlate) was added 100 nL 100×test compound in DMSO and 5 μL 2×CDK enzyme in assay buffer (50 mM HEPES, 1 mM EGTA, 10 mM MgCl2, 0.01% Tween 20, 2 mM DTT). The plate was centrifuged at 800 RPM for 1 min then incubated for 20 min at 23 °C. 2.5 μL per well of 4×ATP and 2.5 μL 4×ULight™-eIF4E-binding protein 1 (Thr37/46) Peptide substrate were added to all wells. After addition, the plates were centrifuged at 800 RPM for 1 min. The plates were incubated at 23 °C for 60 min. 5 μL per well 4×EDTA solution were added to each well to stop the reaction. 5 μL 4×LANCE Ultra Europium-anti-phospho-eIF4E-binding protein 1 (Thr37/46) antibody were added to each well and the plate was centrifuged for 1 min at 800 RPM. The plate was incubated for 60 min at 23 °C. Fluorescence was read at 340 nm excitation and 665 nm emission on an En Vision 2105 fluorescence reader. The final concentrations of reagents in the activity assay were 3 nM CDK2/CCNE1, 1 mM ATP, 50 nM ULight™-eIF4E-binding protein 1 (Thr37/46) Peptide substrate, 1% DMSO, 10 mM EDTA, and 2 nM LANCE Ultra Europium-anti-phospho-eIF4E-binding protein 1 (Thr37/46).
(§3) Dose-response titrations were conducted by using an 11-point, half-logarithmic serial dilution scheme typically starting at 10 μM. Signals were reported as fluorescence units at 665 nm or the ratio of fluorescence units at 665 nm/fluorescence units at 615 nm. Signals are referred to below as “Lance signals”.
(§4) Using this assay, the IC50 values of example compounds were determined. Table 3 illustrates the IC50 for various Example compounds of Formula IA. Table 4 illustrates the IC50 for various other Example compounds of Formula I. ND=not determined.

The target in a further assay is CDK1/CCNB1 (Homo sapiens, UniProt P06493). Put plainly: CDK1 homogeneous time-resolved fluorescence (HTRF) kinase assay. As to conditions: CDK1/CCNB. It is filed as biochemical. Here is the method:
as §1
as §2, with “were 0.5” for “were 3”, “nM CDK1/CCNB1,” for “nM CDK2/CCNE1,”
as §3, §4
(In general: Time-resolved FRET reads energy transfer from a long-lived donor to a nearby acceptor.)

[1] abbreviates: 25-250 nM marked x, read-out: CDK2/CCNE IC50 25-250 nM.
[2] abbreviates: >250 nM marked x, read-out: CDK1/CCNB IC50 >250 nM.
Setting [3] is: <25 nM, read-out: CDK2/CCNE IC50 <25 nM.
Where [4] appears, read: 25-250 nM marked x, read-out: CDK1/CCNB IC50 25-250 nM.

CDK1/CCNB1, sequence (P06493 whole entry): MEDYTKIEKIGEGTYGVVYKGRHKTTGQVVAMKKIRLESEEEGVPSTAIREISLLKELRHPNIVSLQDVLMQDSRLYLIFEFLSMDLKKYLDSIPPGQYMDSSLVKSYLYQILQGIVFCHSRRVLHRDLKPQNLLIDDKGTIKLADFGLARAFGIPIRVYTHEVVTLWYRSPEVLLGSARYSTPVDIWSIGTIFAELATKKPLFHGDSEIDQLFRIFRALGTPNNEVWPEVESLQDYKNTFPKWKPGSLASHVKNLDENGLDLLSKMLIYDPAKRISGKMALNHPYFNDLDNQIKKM
CDK1/CCNB1, sequence (P14635 whole entry partner): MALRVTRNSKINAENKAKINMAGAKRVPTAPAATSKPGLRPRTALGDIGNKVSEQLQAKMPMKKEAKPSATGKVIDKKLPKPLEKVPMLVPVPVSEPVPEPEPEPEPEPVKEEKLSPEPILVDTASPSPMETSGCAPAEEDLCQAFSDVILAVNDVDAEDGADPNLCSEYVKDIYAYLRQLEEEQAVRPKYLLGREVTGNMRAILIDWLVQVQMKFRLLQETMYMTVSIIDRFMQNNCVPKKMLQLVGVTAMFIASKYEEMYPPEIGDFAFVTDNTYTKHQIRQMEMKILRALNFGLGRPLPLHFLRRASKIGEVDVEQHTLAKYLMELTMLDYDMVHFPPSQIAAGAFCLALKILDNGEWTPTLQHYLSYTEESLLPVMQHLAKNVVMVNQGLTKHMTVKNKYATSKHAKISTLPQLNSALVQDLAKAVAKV

For the compound `CS(=O)(=O)N1CCC(Nc2cc3c(N4CCCCC4CO)nccc3cn2)CC1` (racemic) [Ex 56, (1-(7-((1-(methylsulfonyl)piperidin-4-yl)amino)-2,6-naphthyridin-1-yl)piperidin-2-yl)methanol], the IC50 was 25 to 250 nM on CDK2/CCNE1 (setting [1]) and greater than 250 nM on CDK1/CCNB1 (setting [2]). The matching figures for `CS(=O)(=O)N1CCC(Nc2cc3c(N4CCCC4CO)nccc3cn2)CC1` (racemic) [Ex 57, (1-(7-((1-(methylsulfonyl)piperidin-4-yl)amino)-2,6-naphthyridin-1-yl)pyrrolidin-2-yl)methanol]: 25 to 250 nM and greater than 250 nM. The matching figures for `CS(=O)(=O)N1CCC(Nc2cc3c(C(=O)N4CCC(C#N)C4)nccc3cn2)CC1` (racemic) [Ex 94, 1-(7-((1-(methylsulfonyl)piperidin-4-yl)amino)-2,6-naphthyridine-1-carbonyl)pyrrolidine-3-carbonitrile]: 25 to 250 nM and greater than 250 nM. The like results for `CS(=O)(=O)N1CCC(Nc2cc3c(C(=O)N4CCCC(C#N)C4)nccc3cn2)CC1` (racemic) [Ex 98, 1-(7-((1-(methylsulfonyl)piperidin-4-yl)amino)-2,6-naphthyridine-1-carbonyl)piperidine-3-carbonitrile] were, in that order, 25 to 250 nM and greater than 250 nM.

Regarding `C=CS(=O)(=O)N1CCC(Nc2cc3c(N4CCC(OC(C)=O)C4)nccc3cn2)CC1` (racemic) [Ex 104, 1-(7-((1-(vinylsulfonyl)piperidin-4-yl)amino)-2,6-naphthyridin-1-yl)pyrrolidin-3-yl acetate], the results for the IC50 at CDK2/CCNE1 (setting [1]) and on CDK1/CCNB1 (setting [2]) were 25 to 250 nM and greater than 250 nM, respectively. In the case of `N#CC1CCN(c2nccc3cnc(Nc4cccc(C(=O)NC5CCSC5=O)c4)cc23)CC1` (racemic) [Ex 112, 3-((5-(4-cyanopiperidin-1-yl)-2,6-naphthyridin-3-yl)amino)-N-(2-oxotetrahydrothiophen-3-yl)benzamide], the IC50 at CDK2/CCNE1 (setting [1]) was 25 to 250 nM; on CDK1/CCNB1 (setting [2]) it was greater than 250 nM. The matching figures for `C=CS(=O)(=O)c1ccc(Nc2cc3c(N4CCCC(C#N)C4)nccc3cn2)cc1` (racemic) [Ex 123, 1-(7-((4-(vinylsulfonyl)phenyl)amino)-2,6-naphthyridin-1-yl)piperidine-3-carbonitrile]: 25 to 250 nM and greater than 250 nM.

As to `CS(=O)(=O)c1ccc(Nc2cc3c(C4CCC(C#N)CC4)nccc3cn2)cc1` (racemic) [Ex 142, 4-(7-((4-(methylsulfonyl)phenyl)amino)-2,6-naphthyridin-1-yl)cyclohexane-1-carbonitrile], the IC50 on CDK2/CCNE1 (setting [3]) is less than 25 nM; at CDK1/CCNB1 (setting [4]), 25 to 250 nM.

Regarding `COC(=O)C1CSC(c2nccc3cnc(Nc4ccc(S(C)(=O)=O)cc4)cc23)=N1` (racemic) [Ex 169, methyl 2-(7-((4-(methylsulfonyl)phenyl)amino)-2,6-naphthyridin-1-yl)-4,5-dihydrothiazole-4-carboxylate], the IC50 on CDK2/CCNE1 (setting [1]) was 25 to 250 nM; on CDK1/CCNB1 (setting [2]), greater than 250 nM. The like results for `Cc1c(-c2nccc3cnc(Nc4ccc(S(C)(=O)=O)cc4)cc23)ccc2nn(CC3CCNC3)cc12` (racemic) [Ex 195, 5-(4-methyl-2-(pyrrolidin-3-ylmethyl)-2H-indazol-5-yl)-N-(4-(methylsulfonyl)phenyl)-2,6-naphthyridin-3-amine] were, in that order, 25 to 250 nM and greater than 250 nM. The matching figures for `CS(=O)(=O)c1ccc(Nc2cc3c([C@@H]4CCC[C@H](O)C4)nccc3cn2)cc1` (racemic) [Ex 203, (1S,3R)-3-(7-((4-(methylsulfonyl)phenyl)amino)-2,6-naphthyridin-1-yl)cyclohexan-1-ol (cis, racemic)]: 25 to 250 nM and greater than 250 nM. In the case of `CS(=O)(=O)c1ccc(Nc2cc3c(C4CCCC(=O)C4)nccc3cn2)cc1` (racemic) [Ex 204, 3-(7-((4-(methylsulfonyl)phenyl)amino)-2,6-naphthyridin-1-yl)cyclohexan-1-one], the IC50 at CDK2/CCNE1 (setting [1]) was 25 to 250 nM; on CDK1/CCNB1 (setting [2]), greater than 250 nM. The matching figures for `C=CS(=O)(=O)c1ccc(Nc2cc3c(N4CCC(O)C4)nccc3cn2)cc1` (racemic) [Ex 211, 1-(7-((4-(vinylsulfonyl)phenyl)amino)-2,6-naphthyridin-1-yl)pyrrolidin-3-ol]: 25 to 250 nM and greater than 250 nM.

With `CS(=O)(=O)N1CCC(Nc2cc3c(N4CCC(C(N)=O)C4)nccc3cn2)CC1` (racemic) [Ex 260, 1-(7-((1-(methylsulfonyl)piperidin-4-yl)amino)-2,6-naphthyridin-1-yl)pyrrolidine-3-carboxamide], the results for the IC50 on CDK2/CCNE1 (setting [1]) and on CDK1/CCNB1 (setting [2]) were 25 to 250 nM and greater than 250 nM, respectively. Consider `COc1cc(S(=N)(=O)C2COC2)ccc1Nc1cc2c(C#Cc3ccc4c(c3)NC(=O)C43CC3)nccc2cn1` (single isomer, unassigned) [Ex 324, 6'-((7-((2-methoxy-4-(oxetane-3-sulfonimidoyl)phenyl)amino)-2,6-naphthyridin-1-yl)ethynyl)spiro[cyclopropane-1,3'-indolin]-2'-one], for which the IC50 on CDK1/CCNB1 (setting [4]) was in the range of 25 to 250 nM. In the case of `CC(C)S(=N)(=O)c1ccc(Nc2cc3c(C#Cc4ccc5c(c4)NC(=O)C5(C)CO)nccc3cn2)cc1` (single isomer, unassigned) [Ex 331, 3-(hydroxymethyl)-3-methyl-6-((7-((4-(propan-2-ylsulfonimidoyl)phenyl)amino)-2,6-naphthyridin-1-yl)ethynyl)indolin-2-one], the IC50 on CDK1/CCNB1 (<25 nM, read-out: CDK1/CCNB IC50 <25 nM) is less than 25 nM. With `CCC1(CC)C(=O)Nc2cc(C#Cc3nccc4cnc(Nc5ccc(S(=N)(=O)CC)cc5)cc34)ccc21` (single isomer, unassigned) [Ex 428, 3,3-diethyl-6-((7-((4-(ethylsulfonimidoyl)phenyl)amino)-2,6-naphthyridin-1-yl)ethynyl)indolin-2-one], at CDK1/CCNB1 (x = IC50 >250 nM, read-out: CDK1/CCNB IC50 (>250 nM column)), the IC50 is greater than 250 nM. On to `CCN(C)c1nccc2cnc(NC3CCN(S(C)(=O)=O)CC3)cc12` [Ex 38, N1-ethyl-N1-methyl-N7-(1-(methylsulfonyl)piperidin-4-yl)-2,6-naphthyridine-1,7-diamine], for which the values for the IC50 at CDK2/CCNE1 (setting [3]) and on CDK1/CCNB1 (setting [4]) were less than 25 nM and 25 to 250 nM, respectively. For `CS(=O)(=O)N1CCC(Nc2cc3c(N(CO)Cc4ccccc4)nccc3cn2)CC1` [Ex 53, (benzyl(7-((1-(methylsulfonyl)piperidin-4-yl)amino)-2,6-naphthyridin-1-yl)amino)methanol], the IC50 is 25 to 250 nM at CDK2/CCNE1 (setting [1]) and greater than 250 nM on CDK1/CCNB1 (setting [2]). The like results for `CC1(O)CCN(c2nccc3cnc(NC4CCN(S(C)(=O)=O)CC4)cc23)CC1` [Ex 54, 4-methyl-1-(7-((1-(methylsulfonyl)piperidin-4-yl)amino)-2,6-naphthyridin-1-yl)piperidin-4-ol] were, in that order, 25 to 250 nM and greater than 250 nM.

With `CN(Cc1ccccc1)C1CCN(c2nccc3cnc(NC4CCN(S(C)(=O)=O)CC4)cc23)CC1` [Ex 55, 5-(4-(benzyl(methyl)amino)piperidin-1-yl)-N-(1-(methylsulfonyl)piperidin-4-yl)-2,6-naphthyridin-3-amine], the IC50 on CDK2/CCNE1 (setting [1]) is 25 to 250 nM; at CDK1/CCNB1 (setting [2]), greater than 250 nM. In the case of `CS(=O)(=O)N1CCC(Nc2cc3c(C(=O)N4CCCCC4)nccc3cn2)CC1` [Ex 97, (7-((1-(methylsulfonyl)piperidin-4-yl)amino)-2,6-naphthyridin-1-yl)(piperidin-1-yl)methanone], on CDK1/CCNB1 (setting [2]), the IC50 is greater than 250 nM.

The record behind these values is patent US20260325533A1, “CDK INHIBITOR COMPOUNDS” (ALEKSIA THERAPEUTICS, INC., priority 2023, published 2026).
